Results taken from ChEMBL document CHEMBL5126629, “Paradoxical Increase of Permeability and Lipophilicity with the Increasing Topological Polar Surface Area within a Series of PRMT5 Inhibitors” (J Med Chem, 2022).

Assays:
[1] = Efflux ratio of apparent permeability across […] in MDCK-MDR1 incubated for 120 mins by LC-MS analysis; assay type: ADME, cell-based, Canis lupus familiaris; settings: dog, mdck-mdr1, 2 h
[2] = target: Protein arginine N-methyltransferase 5 (Homo sapiens, UniProt O14744); test: Inhibition of PRMT5 methyltransferase activity in human MTAP -/- Calu-6 cells assessed as reduction in SmB SDMA levels measured after 2 days by HTRF based assay; assay type: cell-based
[3] = Lipophilicity, logD of the compound in octanol and phosphate buffer at pH 7.4 incubated for 4 hrs under shaking condition by liquid chromatography tandem mass spectrometry; assay type: physicochemical
[4] = Metabolic stability in human liver microsomes assessed as intrinsic clearance measured upto 30 mins in presence of NADPH by LC/MS/MS analysis; assay type: ADME, Microsome; settings: read-out: CLH

Sequence of Protein arginine N-methyltransferase 5 (O14744 whole entry): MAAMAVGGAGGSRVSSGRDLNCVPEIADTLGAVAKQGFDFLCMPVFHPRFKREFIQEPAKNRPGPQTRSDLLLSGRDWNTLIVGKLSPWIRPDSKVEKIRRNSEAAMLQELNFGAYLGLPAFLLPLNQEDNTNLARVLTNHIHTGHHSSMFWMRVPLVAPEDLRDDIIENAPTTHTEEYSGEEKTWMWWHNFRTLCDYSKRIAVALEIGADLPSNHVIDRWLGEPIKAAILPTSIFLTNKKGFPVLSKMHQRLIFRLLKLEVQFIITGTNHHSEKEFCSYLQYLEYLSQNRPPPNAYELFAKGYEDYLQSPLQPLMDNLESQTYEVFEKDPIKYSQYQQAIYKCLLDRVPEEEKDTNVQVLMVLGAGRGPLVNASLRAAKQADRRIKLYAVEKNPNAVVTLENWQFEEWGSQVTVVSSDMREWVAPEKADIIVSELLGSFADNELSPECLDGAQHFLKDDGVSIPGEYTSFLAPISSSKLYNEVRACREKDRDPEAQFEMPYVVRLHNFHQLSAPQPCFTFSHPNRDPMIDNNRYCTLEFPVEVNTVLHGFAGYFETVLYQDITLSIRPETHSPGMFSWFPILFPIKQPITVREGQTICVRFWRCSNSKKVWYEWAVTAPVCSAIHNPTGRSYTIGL

Row | Compound | Ratio [1] | IC50 [2] [nM] | logD at 4 h [3] | microsomal CLint [4] [µL/min/mg]
1 | Cc1cc2ccc(Cn3c(C(=O)N(C)c4ccccc4)nccc3=O)cc2nc1N | 8 | 39 | 2.1 | 299
2 | Cc1cc2ccc(Cn3nncc3C(=O)N(C)c3ccccc3)cc2nc1N | 3 | 50 | 2.1 | 547
3 | Cc1cc2ccc(Cn3c(C(=O)N(C)c4ccccc4)cccc3=O)cc2nc1N | 22 | 17 | 2 | 422
4 | Cc1cc2ccc(Cn3c(C(=O)N(C)c4ccccn4)cn(C)c3=O)cc2nc1N | 14 | 9 | 0.8 | 28
5 | Cc1cc2ccc(Cn3c(C(=O)N(C)c4ccccc4)nn(C)c3=O)cc2nc1N | 6 | 2 | 1.9 | 97
6 | Cc1cc2ccc(Cn3c(C(=O)N(C)c4ccccn4)nn(C)c3=O)cc2nc1N | 17 | 21 | 0.9 | < 25
7 | Cc1cc2ccc(Cn3c(C(=O)N(C)c4ccccc4)cn(C)c3=O)cc2nc1N | 35 | 2 | 1.6 | 395

Further lines, results first:

Row | Ratio [1] | IC50 [2] [nM] | logD at 4 h [3] | microsomal CLint [4] [µL/min/mg] | Compound
8 | 1 | 49 | 2.9 | > 700 | Cc1cc2ccc(Cn3c(C(=O)N(C)c4ccccc4)noc3=O)cc2nc1N
9 | 1 | 14 | 1.8 | 89 | Cc1cc2ccc(Cn3nccc3C(=O)N(C)c3ncccc3F)cc2nc1N
10 | – | 29 | 1.1 | 36 | Cc1cc2ncc(Cn3c(C(=O)N(C)c4ccccc4)cn(C)c3=O)cc2nc1N
11 | 2 | 1 | 1.8 | 240 | Cc1cc2ccc(Cn3c(C(=O)N(C)c4ccccc4)coc3=O)cc2nc1N
